From publication PMC6429263, “Evolution and Antibacterial Evaluation of 8-Hydroxy-cycloberberine Derivatives as a Novel Family of Antibacterial Agents Against MRSA” (Molecules, 2019)

What was measured:
[1] = Stability in liver microsomes, human; assay type: in vitro ADME
Procedure: The assay was performed with liver microsomes from CD-1 mouse, SD rat and human. […] The reaction can be started by the addition of liver microsomes or the tested compound or NADPH. Aliquots were sampled at 0, 5, 10, 20, 30 and 60 min incubation, and enzymatic reaction was stopped by protein precipitation in cold acetonitrile including 100 ng/mL tolbutamide and 100 ng/mL labetalol as internal standard. After centrifugation, samples were then analyzed by LC/MS/MS [26].

[2] = Stability in liver microsomes, rat; assay type: in vitro ADME, SD rat
Procedure: (§1) The assay was performed with liver microsomes from CD-1 mouse, SD rat and human. Microsomes in 100 mM potassium phosphate buffer (0.5 mg/mL microsomal protein), cofactor MgCl2 (10 mM), tested compound (1 μM, cosolvent (0.01% DMSO), 0.99% CH3OH), and then NADPH (1 mM) at 37 °C for 60 min. The reaction can be started by the addition of liver microsomes or the tested compound or NADPH. Aliquots were sampled at 0, 5, 10, 20, 30 and 60 min incubation, and enzymatic reaction was stopped by protein precipitation in cold acetonitrile including 100 ng/mL tolbutamide and 100 ng/mL labetalol as internal standard. After centrifugation, samples were then analyzed by LC/MS/MS [26].

[3] = Stability in liver microsomes, mouse; assay type: in vitro ADME, CD-1 mouse
Procedure: as §1

C[C@]12CC[C@H]3[C@@H](CCC4=CC(=O)CC[C@@]43C)[C@@H]1CC[C@@H]2O [Tes, testosterone, reference compound]
half-life at 1 μM ([1]; 1 μM): 12.9 min
Remaining Ratio (T = 60 min) ([1]; 60 min): 3.9%
Remaining Ratio (T = 60 min) ([2]; 60 min): 0%
half-life at 1 μM ([2]; SD, 1 μM): 0.6 min
microsomal CLint at 1 μM ([2]; SD, 1 μM, read-out: CL Int (mic)): 2350 µL/min/mg
Remaining Ratio (T = 60 min) ([3]; 60 min): 0%
half-life at 1 μM ([3]; CD-1, 1 μM): 5.5 min
microsomal CLint at 1 μM ([3]; CD-1, 1 μM, read-out: CL Int (mic)): 254 µL/min/mg
